Key:
L. major promastigotes [1] = tested on: L. major promastigotes; set-up: method as in PMID 25834987; details: cited from earlier work
[2] = AlamarBlue cytotoxicity, BMDM; format: cell-based; details: bone marrow-derived macrophages (BMDM)
Protocol: BMDM were generated in complete RPMI medium as described previously. On day six, the cytotoxicity against 2 × 10^5 cells/ml was tested at increasing concentrations of compounds 1 and 2 for 48 h. Human embryonic kidney HEK 293 T cells (ATCC, Wesel, Germany) were cultured in Dulbecco´s Modified Eagle Medium (DMEM) (Life Technologies, Darmstadt, Germany), with 10% FCS (PAA Laboratories, Germany). According to the standard operating procedures (SOP) within the Collaborative Research Center 630 (SFB 630) 2 × 10^4 HEK 293 T cells/ml were tested at increasing concentrations of compounds 1 and 2 for 48 h. Human liver carcinoma HepG2 cells (ATCC) were cultured in RPMI medium (Gibco) with 10% FCS. 1 × 10^5 cells/ml HepG2 were tested at increasing concentrations of 1 and 2 for 72 h according to the SOPs. The AlamarBlue assay was performed as described above for L. major parasites.

L. major promastigotes [3] = assay: Diff-Quik staining and transmitted light microscopy, cell morphology; format: cell-based, Leishmania major; details: 122.7 μM
Protocol: (§1) L. major parasites harvested from blood agar cultures were washed twice with Dulbecco’s phosphate-buffered saline (DPBS; Invitrogen, Darmstadt, Germany) and centrifuged at 3.000 × g for 10 min. The pellet was suspended in RPMI 1640 medium at a final concentration of 1 × 10^8 cells/ml. Cells were treated with 1% DMSO, 122.7 μM miltefosine (1-hexadecylphorylcholine; apoptosis inducer), or 100 μM of the tested compounds 1 and 2 in a final volume of 200 μl in 96 well plates. Samples were incubated at 27°C in 5% CO2 for several time points between 30 min and 24 h. Transmitted light microscopic, transmission electron microscopic (TEM), and flow cytometric techniques were used to find phenotypic patterns caused by the treatment with the tested compounds.
After incubation for 30 min, 1 h, 2 h, 4 h, and 24 h in the presence of the tested compounds 1 and 2, promastigotes were harvested and centrifuged in a Cytospin 3 centrifuge (Shandon, Frankfurt, Germany) on microscope slides at 253 × g for 5 min at room temperature (RT). Cytospin preparations of cells were stained using the Differential Quick Stain (Diff-Quik) dye (Medion Diagnostics AG, Duedingen, Switzerland), according to the manufacturers’ protocol with some modifications. Diff-Quik stains the leishmanial nuclei and the kinetoplasts dark purple and the cytoplasm light purple allowing the observation of phenotypic changes within the parasite. Briefly, air-dried cells were fixed by dipping the slides 5 times for 3 seconds in fixative solution. Subsequently the slides were stained with Solution I following Solution II (from Diff-Quik kit) and air-dried between each staining steps. Finally, the samples were rapidly dipped once in ultra-pure water (produced by a TKA purification system apparatus, Niederelbert, Germany) to remove excessive staining solutions. The air-dried cells were analyzed by transmitted light microscopy under a 50× objective on a Nikon ECLIPSE 50i microscope equipped with a digital camera (Nikon, Tokyo, Japan). The images were processed using NIS Elements D software (Nikon).

L. major promastigotes [4] = assay: Annexin V / propidium iodide flow cytometry, cell death phenotype; format: cell-based, Leishmania major; details: 122.7 μM
Protocol: as §1
The loss of membrane integrity and translocation of phosphatidylserine (PS) to the outside of the cellular membrane can be determined by annexin V (AV) and propidium iodide (PI) staining. Double staining with AV-fluorescein isothiocyanate (FITC) and PI during flow cytometry analysis leads to discrimination between four populations: double negatives or alive cells (AV^-/PI^-), double positive or late necrotic/late apoptotic cells (AV^+/PI^+), PI-positive and AV-negative or early necrotic cells (AV^-/PI^+), and PI-negative and AV-positive or early apoptotic cells (AV^+/PI^-).
Parasites were harvested after incubation for 6 h, 10 h, and 24 h in the presence of compounds 1, 2 and miltefosine (Cayman Chemical Company, MI, USA), respectively, the latter serving as positive control for the induction of apoptotic cell death. DMSO was used as solvent control. Cell staining was performed using an AV-FITC Apoptosis detection kit (Sigma-Aldrich, Saint Louis, MO, USA). Cells were harvested, washed and suspended in 500 μL of binding buffer, 5 μL of AV-FITC and 10 μl of PI. The cells were incubated for 10 min in the dark at RT. Finally, stained samples were immediately analyzed by flow cytometry using MACSQuant analyzer or a flow cytometer (Becton Dickinson, San José, CA, USA).

L. major promastigotes [5] = tested on: L. major promastigotes; set-up: method as in PMID 24473204; details: positive control; cited from earlier work
L. major amastigotes = tested on: L. major amastigotes; set-up: method as in PMID 24473204; details: positive control; cited from earlier work

## CC1(C)C2CCC1(C)C(OC(=O)/C=C/c1ccc(O)c(O)c1)C2 (stereo not shown) [caffeic acid bornyl ester]
L. major promastigotes [1]
  Antileishmanial activity against L. major promastigotes: good antileishmanial activity

## CCCCCCCCCCCCCCCCOP(=O)([O-])OCC[N+](C)(C)C [Miltefosine, 1-hexadecylphorylcholine, reference compound]
[2]
  IC50 at 48 h: 65.5 µM
L. major promastigotes [3]
  Time after which morphological changes and cell disruption were promoted: 2 h
L. major promastigotes [4]; 6 h
  LL: live cells (AV-/PI-): 35.5%
  LR: early apoptotic cells (AV+/PI-): 8.2%
  UL: early necrotic cells (AV-/PI+): 11.8%
  UR: necrotic/late apoptotic cells (AV+/PI+): 44.5%
L. major promastigotes [4]; 6 h, listed as miltefosine
  LR: early apoptotic cells (AV+/PI-): 8%
  UR: necrotic/late apoptotic cells (AV+/PI+): 45%
L. major promastigotes [4]; 10 h
  LL: live cells (AV-/PI-): 15.9%
  LR: early apoptotic cells (AV+/PI-): 13.2%
  UL: early necrotic cells (AV-/PI+): 11.3%
  UR: necrotic/late apoptotic cells (AV+/PI+): 59.6%
L. major promastigotes [4]; 24 h
  LL: live cells (AV-/PI-): 6.3%
  LR: early apoptotic cells (AV+/PI-): 13.0%
  UL: early necrotic cells (AV-/PI+): 5.5%
  UR: necrotic/late apoptotic cells (AV+/PI+): 75.2%
L. major promastigotes [4]; 24 h, listed as miltefosine
  LR: early apoptotic cells (AV+/PI-): 13%
  UR: necrotic/late apoptotic cells (AV+/PI+): 75%
L. major promastigotes [4]; within 24 h
  Promastigotes with affinity of the parasitic surface towards AV: 88%
L. major promastigotes [5]
  IC50: 36.2 µM
L. major amastigotes
  IC50: 33 µM

Source: paper PMC4640567, “Cinnamic Acid Bornyl Ester Derivatives from Valeriana wallichii Exhibit Antileishmanial In Vivo Activity in Leishmania major-Infected BALB/c Mice” (PLoS ONE, 2015)
